Active and inactive are the calls of the source. The calls are words filed in the database; no cut-off is given here.

As usually defined, the GI50 is the concentration that inhibits growth by half. A word on the IC50: it is the concentration at which inhibition is half-maximal. The low end stands for inhibition by little substance, the high end for a need for much substance. Broadly, the TGI is the concentration at which net growth stops.

One test deals with SK-OV-3. Nature of the test: Cytotoxicity against human SK-OV-3 cells assessed as cell growth at 10 uM after 48 hrs by sulforhodamine B assay relative to control. The format is functional. The settings on record: read-out: Activity. In general terms: Sulforhodamine B stains cellular protein and so reports cell mass.
Test [1] concerns Panel NCI-60 (60 carcinoma cell lines). As to the kind of experiment: Cytotoxicity against human Panel NCI-60 (60 carcinoma cell lines) assessed as cell growth at 10 uM after 48 hrs by sulforhodamine B assay relative to control. It counts as functional. To be noted: read-out: Activity.
The subject of another test is MOLT-4. Nature of the test: Cytotoxicity against human MOLT-4 cells assessed as cell growth at 10 uM after 48 hrs by sulforhodamine B assay relative to control. The settings on record: read-out: Activity. The format is functional.
The next test concerns TK-10. As to the kind of experiment: Cytotoxicity against human TK-10 cells assessed as cell growth at 10 uM after 48 hrs by sulforhodamine B assay relative to control. To be noted: read-out: Activity. It counts as functional.
The test system of the next test is SR. As to the kind of experiment: Cytotoxicity against human SR cells assessed as cell growth at 10 uM after 48 hrs by sulforhodamine B assay relative to control. The settings on record: read-out: Activity. It counts as functional.
The next test deals with NCI/ADR-RES. As to the kind of experiment: Cytotoxicity against human NCI/ADR-RES cells assessed as cell growth at 10 uM after 48 hrs by sulforhodamine B assay relative to control. The format is functional. To be noted: read-out: Activity.
Another test deals with COLO 205. As to the kind of experiment: Cytotoxicity against human COLO 205 cells assessed as cell growth at 10 uM after 48 hrs by sulforhodamine B assay relative to control. The format is functional. The settings on record: read-out: Activity.
The subject of test [2] is Panel NCI-60 (60 carcinoma cell lines). Nature of the test: Cytotoxicity against human Panel NCI-60 (60 carcinoma cell lines) assessed as cell growth inhibition measured after 48 hrs by sulforhodamine B assay. It counts as functional.
Test [3] is described as follows: (§1) Inhibition of porcine brain tubulin polymerization incubated for 60 mins by spectrophotometry. The format is tissue-based, Sus scrofa.
In the next test the test system is leukaemia cell line. As to the kind of experiment: Cytotoxicity against human leukaemia cell line assessed as cell growth inhibition measured after 48 hrs by sulforhodamine B assay. The format is functional. To be noted: for CC50: read-out: LC50 (the source's name).
The species entered for the next test is Sus scrofa. The description is as §1. The format is tissue-based.

Regarding `CS(=O)(=O)CCNS(=O)(=O)c1ccc(-c2cnc(C3CC3)o2)cc1`, the growth at 10 µM in the test with SK-OV-3 came to 105%; in test [1], 94.1%; in the test with MOLT-4, 94.1%; with TK-10, 99.1%; in the test on SR, 80.3%; in the test with NCI/ADR-RES, 94.1%. Also, in the test with COLO 205, the growth at 10 µM is 94.4%.

Turning to `O=S(=O)(NCC(F)F)c1ccc(-c2cnc(C3CC3)o2)cc1`, the growth at 10 µM in the test on SK-OV-3 was determined as 101%; in test [1], 92.2%; with MOLT-4, 82.5%; with TK-10 it was 104%; in the test with SR, 89.3%; with NCI/ADR-RES it was 92.3%. Moreover, in the test on COLO 205, the growth at 10 µM was determined as 94.5%.

With `O=S(=O)(Nc1ccc(Cl)cc1)c1ccc(-c2cnc(C3CC3)o2)cc1`, the growth at 10 µM is 30.2% in the test with SK-OV-3; 24.3% in test [1]; 14.2% in the test with MOLT-4; 54.2% in the test on TK-10; 9.9% with SR; 4.4% in the test on NCI/ADR-RES. Further, the growth at 10 µM in the test on COLO 205 is 9%. For the same compound, the concentration for 50% growth inhibition (GI50) in test [2] stood at 1430 nM. Also, the LC50 (concentration causing 50% net cell kill) in test [2] came out at 57.4 µM.

Take `O=S(=O)(Nc1ccc(Cl)c(Cl)c1)c1ccc(-c2cnc(C3CC3)o2)cc1`: the growth at 10 µM in test [1] amounted to 25.3%. In test [3], the IC50 was below 80 nM. In the test with leukaemia cell line, the GI50 was determined as 416 nM, the total growth inhibition concentration (TGI) was determined as 62.1 µM and the CC50 was above 100 µM.

Regarding `CC(=O)O[C@H]1C(=O)[C@@]2(C)[C@H]([C@H](OC(=O)c3ccccc3)[C@]3(O)C[C@H](OC(=O)[C@H](O)[C@@H](NC(=O)c4ccccc4)c4ccccc4)C(C)=C1C3(C)C)[C@]1(OC(C)=O)CO[C@@H]1C[C@@H]2O`, in the test filed under Sus scrofa, the inhibition entry is “inactive”.

Regarding `O=S(=O)(Nc1ccc(Cl)c(C(F)(F)F)c1)c1ccc(-c2cnc(C3CC3)o2)cc1`, the growth at 10 µM with SK-OV-3 is 0.8%; in [1], 11.4%; in the test on MOLT-4, 5.2%; with TK-10 it was 3%; in the test with SR, 3.5%; in the test on NCI/ADR-RES, 2.9%. Also, in the test on COLO 205, the growth at 10 µM was 2.7%. The same compound had an IC50 in test [3] of 220 nM. Besides, the 50% growth inhibitory concentration (GI50) in [2] was found to be 655 nM. For the same compound, the LC50 (concentration causing 50% net cell kill) in test [2] came out at 55.4 µM.

For `O=S(=O)(Nc1ccc(F)cc1)c1ccc(-c2cnc(C3CC3)o2)cc1`, the growth at 10 µM in the test on SK-OV-3 is 39.7%; in test [1], 28.1%; with MOLT-4, 12.7%; with TK-10, 32.5%; with SR, 11.6%; with NCI/ADR-RES, -0.9%. The growth at 10 µM in the test on COLO 205 was 20.2%.

On to `O=S(=O)(Nc1ccc(Br)cc1)c1ccc(-c2cnc(C3CC3)o2)cc1`, for which the growth at 10 µM in the test with SK-OV-3 is 35.5%; in [1], 26.9%; in the test on MOLT-4, 15.8%; in the test with TK-10 it was 64.1%; in the test on SR it was 12.7%; in the test on NCI/ADR-RES, -2.2%. Besides, the growth at 10 µM with COLO 205 worked out at 23.9%. In addition, in test [2], the GI50 is 2750 nM. Further, in [2], the LC50 (concentration causing 50% net cell kill) amounted to 54 µM.

Turning to `O=S(=O)(Nc1ccc(Br)c(Cl)c1)c1ccc(-c2cnc(C3CC3)o2)cc1`, the growth at 10 µM in [1] came to 21.5%. In test [3], this compound gave an IC50 below 80 nM. Also, in the test with leukaemia cell line, the GI50 turned out to be 491 nM, the TGI is 70.3 µM and the CC50 was above 100 µM.

On to `O=S(=O)(c1ccc(-c2cnc(C3CC3)o2)cc1)N1CCOCC1`, for which the growth at 10 µM with SK-OV-3 was determined as 112%; in [1], 94.2%; with MOLT-4 it was 95.3%; with TK-10, 101%; in the test on SR, 91.3%; in the test on NCI/ADR-RES, 93.5%. Moreover, in the test on COLO 205, the growth at 10 µM amounted to 95%.

`O=S(=O)(Nc1ccc2ccccc2c1)c1ccc(-c2cnc(C3CC3)o2)cc1`: the growth at 10 µM came out at 32.7% in the test on SK-OV-3; 28.9% in test [1]; 20.2% with MOLT-4; 61.9% in the test on TK-10; 16.5% in the test with SR; 9.7% in the test on NCI/ADR-RES. The growth at 10 µM with COLO 205 came to 1.5%. Further, the GI50 in test [2] is 1840 nM. Moreover, in test [2], the LC50 (concentration causing 50% net cell kill) stood at 78.6 µM.

For `Cc1cc(NS(=O)(=O)c2ccc(-c3cnc(C4CC4)o3)cc2)ccc1Cl`, the growth at 10 µM in test [1] came to 21.7%. The compound also gave a concentration for half-maximal inhibition (IC50) in test [3] below 80 nM. Also, in the test with leukaemia cell line, the 50% growth inhibitory concentration (GI50) was determined as 216 nM, the TGI was 33.4 µM and the CC50 was above 100 µM.

The values above are taken from ChEMBL document CHEMBL4814080, “Design, Synthesis, and Biological Evaluation of Novel 1,3-Oxazole Sulfonamides as Tubulin Polymerization Inhibitors” (ACS Med Chem Lett, 2021).
